Assay results from publication PMC9804470, “A Formylglycine‐Peptide for the Site‐Directed Identification of Phosphotyrosine‐Mimetic Fragments” (Chemistry (Weinheim an Der Bergstrasse, Germany), 2022).
“Also recorded” adds a separate entry of the source.

How the values were obtained:
Type in all cases: biochemical
PTP1B [1] = molecular target: T1, PTP1B (Homo sapiens, UniProt P18031); test: Dynamic ligation screening of nucleophilic fragments with formylglycine peptide 3, PTP1B; conditions: 3 100 μM pre-incubated 5 min, fragment 200 μM, 30 min RT before DiFMUP, triplicates
T1 construct: catalytic domain of human PTP1B (amino acids 1–321); His7 (N, cleaved yes); made in house; host or cells: E. coli Rosetta (DE3)
T1 sequence (P18031 1-321): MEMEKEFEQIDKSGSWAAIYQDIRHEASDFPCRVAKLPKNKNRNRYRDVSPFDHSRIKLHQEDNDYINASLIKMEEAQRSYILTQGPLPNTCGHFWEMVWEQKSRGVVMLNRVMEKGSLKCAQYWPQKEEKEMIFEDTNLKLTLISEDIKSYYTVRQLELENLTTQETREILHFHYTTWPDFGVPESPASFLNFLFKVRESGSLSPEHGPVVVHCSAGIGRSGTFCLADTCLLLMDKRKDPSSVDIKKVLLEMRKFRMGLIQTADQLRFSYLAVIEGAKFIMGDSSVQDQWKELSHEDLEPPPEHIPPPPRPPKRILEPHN
Method: (§1) Enzyme activity assays of SHP2 and PTP1B: The catalytic activity of SHP2 catalytic domain and PTP1B were monitored using the fluorogenic substrate DiFMUP (6,8‐difluoro‐4‐methylumbelliferyl phosphate). Phosphatase reactions were performed at room temperature in 384‐well black plate, clear flat bottom, low flange, non‐binding surface (Corning, Cat# 3766) using a final volume of 20 μL and the following assay buffer conditions: 50 mM MOPS, pH=6.5, 200 mM NaCl, 50 μM TCEP, 0.03 % Tween‐20 (freshly added prior to each measurement). Test compounds were dissolved in DMSO or buffer at stock concentrations of 50, 20 or 10 mM and serially diluted. Enzyme (5 nM PTP1B or 2.5 nM SHP2 catalytic domain) and different concentrations of the tested compounds were incubated in buffer for 30–60 min at room temperature. Measurements were performed with a final concentration of 2.5 % DMSO unless stated otherwise at 37 °C and were performed in triplicate. Enzymatic reactions were started by adding DiFMUP (Invitrogen, cat# D6567) concentrations matching the experimentally determined KM values of the enzymes of 67 μM (PTP1B) or 72 μM (SHP2). Samples were excited at a wavelength of 360 nm and emitted fluorescence was recorded at 460 for 10 min using a microplate reader (infinite M1000 Pro, Tecan). Initial slope of fluorescence was determined in triplicate and IC50 values were calculated with GraphPad Prism 5. Determined IC50 values were converted into the corresponding KI values applying the Cheng Prusoff equation KI =IC50 /(1+[S]/KM ).
(§2) Dynamic ligation screening of nucleophilic fragments with 3: Under assay conditions described above, PTP1B or SHP2 were pre‐incubated with 3 (100 μM) for 5 min. Subsequently, (200 μM) of the respective fragments were added and the resulting mixtures were incubated for 30 min at RT, prior to DiFMUP addition.

SHP2 = molecular target: T2, SHP2 (Homo sapiens, UniProt Q06124); test: Dynamic ligation screening of nucleophilic fragments with formylglycine peptide 3, SHP2; conditions: 3 100 μM pre-incubated 5 min, fragment 200 μM, 30 min RT before DiFMUP, triplicates
T2 construct: catalytic domain of human SHP2 (amino acids 225–541); His10 (N); made in house; host or cells: E. coli B21 (DE3)
T2 sequence (Q06124 225-541): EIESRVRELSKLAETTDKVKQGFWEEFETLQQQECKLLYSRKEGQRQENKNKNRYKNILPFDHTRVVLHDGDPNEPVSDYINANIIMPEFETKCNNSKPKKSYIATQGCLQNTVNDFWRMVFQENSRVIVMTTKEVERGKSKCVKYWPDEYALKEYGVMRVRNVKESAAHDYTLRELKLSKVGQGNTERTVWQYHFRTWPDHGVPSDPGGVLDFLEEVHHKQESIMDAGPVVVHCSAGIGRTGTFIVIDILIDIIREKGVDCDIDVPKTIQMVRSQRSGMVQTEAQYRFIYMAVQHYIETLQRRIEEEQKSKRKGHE
Method: as §1, §2

PTP1B [2] = molecular target: T1, PTP1B; test: Apparent KI values of in situ ligation products of 3 (time- and concentration-dependent assay); conditions: for Effect of fragment ligation with 3 on inhibition curves of PTP1B: inhibition at different concentrations, with and without 3 / fragment (Figure 5C, D)
Method: as §1
Subsequently, over the course of 60 mins (every 15 min), 2 equivalents of fragment F1 were added to each of the different concentrations of 3 at RT, prior to DiFMUP addition.
Subsequently, fragment F2 was added at three different concentrations (1 equiv, 2 equiv, and 4 equiv) and the resulting mixtures were incubated for 30 min at RT, prior to DiFMUP addition.

[3] = molecular target: T3, catalytic domain of human PTP1B (Homo sapiens, UniProt P18031); test: Enzyme activity assay of PTP1B with fluorogenic substrate DiFMUP
T3 construct: catalytic domain of human PTP1B (amino acids 1–321); His7 (N, cleaved yes); made in house; host or cells: E. coli Rosetta (DE3)
T3 sequence (P18031 1-321): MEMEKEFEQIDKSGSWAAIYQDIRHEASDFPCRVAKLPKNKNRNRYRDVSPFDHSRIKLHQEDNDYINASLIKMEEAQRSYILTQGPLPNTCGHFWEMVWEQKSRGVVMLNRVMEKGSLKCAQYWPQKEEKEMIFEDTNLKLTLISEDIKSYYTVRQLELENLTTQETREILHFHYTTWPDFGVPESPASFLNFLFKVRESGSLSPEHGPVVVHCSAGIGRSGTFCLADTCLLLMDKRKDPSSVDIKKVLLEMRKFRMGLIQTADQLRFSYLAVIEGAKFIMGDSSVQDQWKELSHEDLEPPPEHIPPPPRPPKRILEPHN
Method: Protein Expression and purification: DNA encoding the catalytic domain of human PTP1B (amino acids 1–321) was subcloned into the pQLinkH vector. The gene encoding the N‐terminal His7‐tagged protein was over‐expressed at 17 °C in E. coli Rosetta (DE3). […] The His7‐tag was cleaved with tobacco etch virus protease at 20 °C prior to the gel‐filtration step. The catalytic domain of human SHP2 (amino acids 225–541) was purified from E. coli B21 (DE3). The overexpressed protein was fused to an N‐terminal His10‐tag. Cells were harvested and resuspended in 25 mM Tris‐HCl (pH=7.5), 50 mM NaCl, 1 % (v/v) Triton X‐100, 10 % (v/v) glycerol, 1 mM DTT. After cell lysis, debris was removed by centrifugation at 12,000 rpm for 30 min. The supernatant was filtered prior to affinity purification with Ni‐NTA agarose (Qiagen). The slurry was washed with 50 mM Tris‐HCl (pH=8.0), 500 mM NaCl supplemented with 25 mM imidazole. Reasonably pure protein was eluted with 200–300 mM imidazole. The purification was completed by size‐exclusion chromatography with a Superdex 75 16/600 column (GE Healthcare) equilibrated with 20 mM HEPES‐NaOH (pH=7.5), 50 mM NaCl, 1 mM DTT.
as §1

[4] = molecular target: T4, catalytic domain of human SHP2 (Homo sapiens, UniProt Q06124); test: Enzyme activity assay of SHP2 catalytic domain with fluorogenic substrate DiFMUP; conditions: hydrazine fragments alone, DiFMUP assay; Supporting Table 1
T4 construct: catalytic domain of human SHP2 (amino acids 225–541); His10 (N); made in house; host or cells: E. coli B21 (DE3)
T4 sequence (Q06124 225-541): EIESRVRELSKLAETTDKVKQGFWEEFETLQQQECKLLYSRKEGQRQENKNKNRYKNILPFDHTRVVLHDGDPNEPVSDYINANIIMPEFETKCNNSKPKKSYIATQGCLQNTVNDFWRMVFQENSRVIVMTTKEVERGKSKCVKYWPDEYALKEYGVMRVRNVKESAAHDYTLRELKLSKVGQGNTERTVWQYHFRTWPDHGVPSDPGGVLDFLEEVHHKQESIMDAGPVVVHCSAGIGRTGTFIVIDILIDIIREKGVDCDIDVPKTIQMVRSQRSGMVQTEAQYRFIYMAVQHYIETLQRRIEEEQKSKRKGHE

Ki (PTP1B [2]; PTP1B, ligation product of F2 with 3, read-out: apparent KI of fragment ligation product with 3 (legend of Figure 5B)) [µM]	IC50 ([3]; hydrazine fragments alone, DiFMUP assay, Supporting Table 1) [µM]	Ki ([3]; read-out: KI PTP1B) [µM]	IC50 [4] [µM]	SMILES	Enhancement of inhibition of PTP1B by fragment in combination with peptide 3 (fragment ligation assay) (PTP1B [1])	Enhancement of inhibition of SHP2 by fragment in combination with peptide 3 (fragment ligation assay) (SHP2)	Effect of fragment ligation with 3 on inhibition curves of PTP1B (PTP1B [2])
				Nc1ccc(CC(=O)O)cc1 [Compound F1, 4‐amino‐phenyl‐acetic acid]	over‐additive inhibition; also recorded: super‐additive inhibition	over‐additive inhibition; also recorded: super‐additive inhibition	
				Nc1ccc(S(F)(F)(F)(F)F)cc1 [Compound F7, 4‐amino‐phenyl‐pentafluorosulfate]	inactive		identical inhibition curves
17				Nc1ccc(NS(=O)(=O)C(F)(F)F)cc1 [Compound F2, N‐(4‐aminophenyl)‐trifluoromethyl sulfonamide]	over‐additive inhibition; also recorded: pronounced activity; also recorded: super‐additive inhibition	over‐additive inhibition; also recorded: super‐additive inhibition	
	34	17	> 250	NNc1ccc(S(=O)(=O)O)cc1 [Compound F3, 4‐hydrazo‐phenylsulfonic acid]			did not enforce inhibition of PTP1B further
